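Assay format: 96-well plates, 48-hour exposure. TGI denotes the concentration required for complete inhibition of growth.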
Tests used:
Assay in all cases: NCI-60 cell line screen, 48 h
786-0 renal = tested on: 786-0 renal
A498 renal = tested on: A498 renal
A549 NSCLC = tested on: A549 NSCLC
ACHN renal = tested on: ACHN renal
CAKI-1 renal = tested on: CAKI-1 renal
CCRF-CEM leukemia = tested on: CCRF-CEM leukemia
COLO 205 colon = tested on: COLO 205 colon
DLD-1 colon = tested on: DLD-1 colon
DMS 114 small cell lung = tested on: DMS 114 small cell lung
DMS 273 small cell lung = tested on: DMS 273 small cell lung
EKVX NSCLC = tested on: EKVX NSCLC
HCC-2998 colon = tested on: HCC-2998 colon
HCT-15 colon = tested on: HCT-15 colon
HL-60(TB) leukemia = tested on: HL-60(TB) leukemia
HOP-18 NSCLC = tested on: HOP-18 NSCLC
HOP-92 NSCLC = tested on: HOP-92 NSCLC
HT29 colon = tested on: HT29 colon
IGROV1 ovarian = tested on: IGROV1 ovarian
K-562 leukemia = tested on: K-562 leukemia
KM12 colon = tested on: KM12 colon
KM20L2 colon = tested on: KM20L2 colon
LOX IMVI melanoma = tested on: LOX IMVI melanoma
M14 melanoma = tested on: M14 melanoma
M19-MEL melanoma = tested on: M19-MEL melanoma
MALME-3M melanoma = tested on: MALME-3M melanoma
MOLT-4 leukemia = tested on: MOLT-4 leukemia
NCI-H226 lung = tested on: NCI-H226 lung
NCI-H23 lung = tested on: NCI-H23 lung
NCI-H460 lung = tested on: NCI-H460 lung
OVCAR-3 ovarian = tested on: OVCAR-3 ovarian
OVCAR-4 ovarian = tested on: OVCAR-4 ovarian
OVCAR-5 ovarian = tested on: OVCAR-5 ovarian
OVCAR-8 ovarian = tested on: OVCAR-8 ovarian
RPMI-8226 leukemia = tested on: RPMI-8226 leukemia
RXF 393 renal = tested on: RXF 393 renal
SF-268 CNS = tested on: SF-268 CNS
SF-295 CNS = tested on: SF-295 CNS
SK-MEL-2 melanoma = tested on: SK-MEL-2 melanoma
SK-MEL-28 melanoma = tested on: SK-MEL-28 melanoma
SK-MEL-5 melanoma = tested on: SK-MEL-5 melanoma
SK-OV-3 ovarian = tested on: SK-OV-3 ovarian
SN12C renal = tested on: SN12C renal
SNB-19 CNS = tested on: SNB-19 CNS
SNB-75 CNS = tested on: SNB-75 CNS
SNB-78 CNS = tested on: SNB-78 CNS
SW-620 colon = tested on: SW-620 colon
TK-10 renal = tested on: TK-10 renal
U251 CNS = tested on: U251 CNS
UACC-257 melanoma = tested on: UACC-257 melanoma
UACC-62 melanoma = tested on: UACC-62 melanoma
UO-31 renal = tested on: UO-31 renal
XF 498 CNS = tested on: XF 498 CNS
HCT-116 colon = tested on: HCT-116 colon
HOP-62 NSCLC = tested on: HOP-62 NSCLC
NCI-H522 lung = tested on: NCI-H522 lung
SF-539 CNS = tested on: SF-539 CNS
SR leukemia = tested on: SR leukemia
LXFL 529 NSCLC = tested on: LXFL 529 NSCLC

## COc1ccc(S(=O)(=O)N/N=C\c2cc([N+](=O)[O-])cc(I)c2O)c(OC)c1OC
786-0 renal
  TGI: 61.4 µM
A498 renal
  TGI: 83 µM
A549 NSCLC
  TGI: > 100 µM
ACHN renal
  TGI: 92.1 µM
CAKI-1 renal
  TGI: 67.4 µM
CCRF-CEM leukemia
  TGI: 59.1 µM
COLO 205 colon
  TGI: 45 µM
DLD-1 colon
  TGI: 95.1 µM
DMS 114 small cell lung
  TGI: 64.6 µM
DMS 273 small cell lung
  TGI: > 100 µM
EKVX NSCLC
  TGI: 80.7 µM
HCC-2998 colon
  TGI: 86.8 µM
HCT-15 colon
  TGI: 55.8 µM
HL-60(TB) leukemia
  TGI: 71.4 µM
HOP-18 NSCLC
  TGI: 63.5 µM
HOP-92 NSCLC
  TGI: 37 µM
HT29 colon
  TGI: > 100 µM
IGROV1 ovarian
  TGI: > 100 µM
K-562 leukemia
  TGI: > 100 µM
KM12 colon
  TGI: > 100 µM
KM20L2 colon
  TGI: > 100 µM
LOX IMVI melanoma
  TGI: 92.4 µM
M14 melanoma
  TGI: 77.6 µM
M19-MEL melanoma
  TGI: 87.2 µM
MALME-3M melanoma
  TGI: 85.2 µM
MOLT-4 leukemia
  TGI: 64.9 µM
NCI-H226 lung
  TGI: 41.9 µM
NCI-H23 lung
  TGI: 67.1 µM
NCI-H460 lung
  TGI: > 100 µM
OVCAR-3 ovarian
  TGI: 62.8 µM
OVCAR-4 ovarian
  TGI: 72.7 µM
OVCAR-5 ovarian
  TGI: > 100 µM
OVCAR-8 ovarian
  TGI: > 100 µM
RPMI-8226 leukemia
  TGI: 71.6 µM
RXF 393 renal
  TGI: 54.6 µM
SF-268 CNS
  TGI: 75 µM
SF-295 CNS
  TGI: > 100 µM
SK-MEL-2 melanoma
  TGI: 45.3 µM
SK-MEL-28 melanoma
  TGI: 64.7 µM
SK-MEL-5 melanoma
  TGI: 45.5 µM
SK-OV-3 ovarian
  TGI: 64 µM
SN12C renal
  TGI: > 100 µM
SNB-19 CNS
  TGI: 76.3 µM
SNB-75 CNS
  TGI: 70.1 µM
SNB-78 CNS
  TGI: 74 µM
SW-620 colon
  TGI: > 100 µM
TK-10 renal
  TGI: > 100 µM
U251 CNS
  TGI: 66 µM
UACC-257 melanoma
  TGI: 75.5 µM
UACC-62 melanoma
  TGI: 45.4 µM
UO-31 renal
  TGI: 40.2 µM
XF 498 CNS
  TGI: 48 µM

## COc1ccc(/C=C2\C(=O)N(C(=O)c3ccc(NC(C)=O)cc3)N=C2C)cc1
786-0 renal
  TGI: > 100 µM
A549 NSCLC
  TGI: > 100 µM
ACHN renal
  TGI: > 100 µM
CAKI-1 renal
  TGI: > 100 µM
CCRF-CEM leukemia
  TGI: > 100 µM
COLO 205 colon
  TGI: > 100 µM
DMS 114 small cell lung
  TGI: > 100 µM
DMS 273 small cell lung
  TGI: > 100 µM
EKVX NSCLC
  TGI: > 100 µM
HCC-2998 colon
  TGI: > 100 µM
HCT-116 colon
  TGI: > 100 µM
HCT-15 colon
  TGI: > 100 µM
HL-60(TB) leukemia
  TGI: > 100 µM
HOP-18 NSCLC
  TGI: > 100 µM
HOP-62 NSCLC
  TGI: > 100 µM
HT29 colon
  TGI: > 100 µM
K-562 leukemia
  TGI: > 100 µM
KM12 colon
  TGI: > 100 µM
LOX IMVI melanoma
  TGI: > 100 µM
M14 melanoma
  TGI: > 100 µM
M19-MEL melanoma
  TGI: > 100 µM
MALME-3M melanoma
  TGI: > 100 µM
MOLT-4 leukemia
  TGI: > 100 µM
NCI-H226 lung
  TGI: > 100 µM
NCI-H23 lung
  TGI: > 100 µM
NCI-H460 lung
  TGI: > 100 µM
NCI-H522 lung
  TGI: > 100 µM
OVCAR-3 ovarian
  TGI: > 100 µM
OVCAR-4 ovarian
  TGI: > 100 µM
OVCAR-5 ovarian
  TGI: > 100 µM
OVCAR-8 ovarian
  TGI: > 100 µM
RPMI-8226 leukemia
  TGI: > 100 µM
SF-268 CNS
  TGI: > 100 µM
SF-295 CNS
  TGI: > 100 µM
SF-539 CNS
  TGI: > 100 µM
SK-MEL-2 melanoma
  TGI: > 100 µM
SK-MEL-28 melanoma
  TGI: > 100 µM
SK-MEL-5 melanoma
  TGI: > 100 µM
SN12C renal
  TGI: > 100 µM
SNB-19 CNS
  TGI: > 100 µM
SNB-75 CNS
  TGI: > 100 µM
SNB-78 CNS
  TGI: > 100 µM
SR leukemia
  TGI: > 100 µM
SW-620 colon
  TGI: > 100 µM
TK-10 renal
  TGI: > 100 µM
UACC-257 melanoma
  TGI: > 100 µM
UO-31 renal
  TGI: > 100 µM
XF 498 CNS
  TGI: > 100 µM

## Cc1cc(O)c(C(=O)O)c2c1C(=O)c1c(O)c(OCC(O)C(O)C(O)C(O)CO)c(O)c(O)c1C2=O (configuration not stated) (tested in a mixture with another compound)
786-0 renal
  TGI: > 100 µM
A498 renal
  TGI: > 100 µM
A549 NSCLC
  TGI: > 100 µM
CAKI-1 renal
  TGI: > 100 µM
CCRF-CEM leukemia
  TGI: > 100 µM
COLO 205 colon
  TGI: > 100 µM
DLD-1 colon
  TGI: > 100 µM
DMS 114 small cell lung
  TGI: > 100 µM
EKVX NSCLC
  TGI: > 100 µM
HCC-2998 colon
  TGI: > 100 µM
HCT-15 colon
  TGI: > 100 µM
HOP-18 NSCLC
  TGI: > 100 µM
HOP-62 NSCLC
  TGI: > 100 µM
HOP-92 NSCLC
  TGI: > 100 µM
HT29 colon
  TGI: > 100 µM
IGROV1 ovarian
  TGI: > 100 µM
K-562 leukemia
  TGI: > 100 µM
KM12 colon
  TGI: > 100 µM
KM20L2 colon
  TGI: > 100 µM
LOX IMVI melanoma
  TGI: > 100 µM
LXFL 529 NSCLC
  TGI: > 100 µM
M14 melanoma
  TGI: > 100 µM
M19-MEL melanoma
  TGI: > 100 µM
MALME-3M melanoma
  TGI: > 100 µM
MOLT-4 leukemia
  TGI: > 100 µM
NCI-H226 lung
  TGI: > 100 µM
NCI-H23 lung
  TGI: > 100 µM
NCI-H522 lung
  TGI: > 100 µM
OVCAR-3 ovarian
  TGI: > 100 µM
OVCAR-4 ovarian
  TGI: > 100 µM
OVCAR-5 ovarian
  TGI: > 100 µM
OVCAR-8 ovarian
  TGI: > 100 µM
RPMI-8226 leukemia
  TGI: > 100 µM
RXF 393 renal
  TGI: > 100 µM
SF-268 CNS
  TGI: > 100 µM
SF-295 CNS
  TGI: > 100 µM
SF-539 CNS
  TGI: > 100 µM
SK-MEL-2 melanoma
  TGI: > 100 µM
SK-MEL-28 melanoma
  TGI: > 100 µM
SK-MEL-5 melanoma
  TGI: > 100 µM
SK-OV-3 ovarian
  TGI: > 100 µM
SN12C renal
  TGI: > 100 µM
SNB-19 CNS
  TGI: > 100 µM
SNB-75 CNS
  TGI: > 100 µM
SNB-78 CNS
  TGI: > 100 µM
SW-620 colon
  TGI: > 100 µM
TK-10 renal
  TGI: > 100 µM
U251 CNS
  TGI: > 100 µM
UACC-257 melanoma
  TGI: > 100 µM
UACC-62 melanoma
  TGI: > 100 µM
UO-31 renal
  TGI: > 100 µM
XF 498 CNS
  TGI: > 100 µM
